This note sets out measurements from US20240270715A1, “INHIBITORS OF TRANSGLUTAMINASES” (ZEDIRA GMBH, priority 2021, published 2024).

Bounds are passed on as bounds.

Series [1] deals with T1, recombinant human transglutaminase 2 (Homo sapiens, UniProt P21980).
T1 sequence (P21980 1-687): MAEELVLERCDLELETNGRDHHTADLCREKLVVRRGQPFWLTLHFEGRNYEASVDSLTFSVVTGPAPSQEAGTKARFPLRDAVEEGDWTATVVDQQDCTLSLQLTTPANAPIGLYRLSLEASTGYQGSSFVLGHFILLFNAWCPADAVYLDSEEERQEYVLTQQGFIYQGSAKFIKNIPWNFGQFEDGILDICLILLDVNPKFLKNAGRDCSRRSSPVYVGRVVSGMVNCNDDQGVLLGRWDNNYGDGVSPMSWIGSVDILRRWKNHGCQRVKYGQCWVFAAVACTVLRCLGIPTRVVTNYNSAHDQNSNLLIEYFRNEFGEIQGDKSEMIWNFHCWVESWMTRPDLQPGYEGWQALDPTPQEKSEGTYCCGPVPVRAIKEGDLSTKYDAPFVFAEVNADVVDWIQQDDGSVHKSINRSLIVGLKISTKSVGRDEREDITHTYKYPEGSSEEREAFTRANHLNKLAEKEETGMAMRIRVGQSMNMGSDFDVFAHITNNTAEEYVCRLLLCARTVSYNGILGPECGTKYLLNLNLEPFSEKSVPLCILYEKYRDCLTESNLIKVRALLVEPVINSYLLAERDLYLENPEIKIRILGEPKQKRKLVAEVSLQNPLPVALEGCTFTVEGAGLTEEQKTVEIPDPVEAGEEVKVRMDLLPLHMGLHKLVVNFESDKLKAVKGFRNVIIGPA
Kind of series: Transglutaminase assay: incorporation of dansylcadaverine into dimethylcasein (DCC-assay). The conditions noted are these: recombinant human TG2 10 nM, dansylcadaverine/dimethylcasein; read-out: IC50 TG2. Type of series: biochemical. The method, then:
To illustrate the advantage of branched alkyl moieties over aromatic moieties, we refer to reference compounds Ref. 2 (ZED1227, U.S. Pat. No. 9,434,763 B2) and Ref. 3 (A8, ZED1047). Inhibition data were determined using the classical fluorescent transamidation assay (dansylcadaverine incorporation into methylated casein, DCC-assay) as described [Büchold, C.; Hils, M.; Gerlach, U.; Weber, J.; Pelzer, C.; Heil, A.; Aeschlimann, D.; Pasternack, R. Features of ZED1227: The First-In-Class Tissue Transglutaminase Inhibitor Undergoing Clinical Evaluation for the Treatment of Celiac Disease. Cells 2022, 11, 1667. https://doi.org/10.3390/cells11101667]. Casein is one of the best known high molecular weight (24 kDa) protein substrates for transglutaminases. Please note, the IC50 value of Ref. 3 (A8) published in U.S. Pat. No. 9,434,763 B2 cannot be compared to the present data, relying on a fluorogenic isopeptidase assay.
To this extent, inhibition data were determined using the classical fluorescent transamidation assay (dansylcadaverine incorporation into methylated casein, DCC-assay) as described in Büchold et al. [Büchold, C.; Hils, M.; Gerlach, U.; Weber, J.; Pelzer, C.; Heil, A.; Aeschlimann, D.; Pasternack, R. Features of ZED1227: The First-In-Class Tissue Transglutaminase Inhibitor Undergoing Clinical Evaluation for the Treatment of Celiac Disease. Cells 2022, 11, 1667. https://doi.org/10.3390/cells11101667]. Casein is one of the best known high molecular weight (24 kDa) protein substrates for transglutaminases. Inhibition data of the inventive compounds was compared with inhibition of compounds disclosed in U.S. Pat. No. 9,434,763 B2, particularly, compound A8, which is denoted herein as Reference 3. It is noteworthy that the IC50 values of compounds A8 published in U.S. Pat. No. 9,434,763 B2 and E16 from U.S. Pat. No. 11,072,634 B2 cannot be compared to the present data, relying on a fluorogenic isopeptidase assay.
For the determination of potency of inhibitors against tissue transglutaminase, the incorporation of dansylcadaverine into dimethylcasein (Zedira product T036, Lorand et al., Anal Biochem, 1971, 44:221-31) was measured using recombinant human transglutaminase 2 (Zedira Product T022).
The tissue transglutaminase is diluted in buffer (50 mM Tris-HCl, 7.5 mM CaCl2, 150 mM NaCl, pH=7.4). The final concentration of TG2 in the assay is 10 nM.
A 10 mM inhibitor stock solution is prepared in DMSO, and from this a serial 1:2-fold dilution series is prepared also in DMSO. Each of the initial dilutions is subsequently diluted 1:50-fold with buffer (50 mM Tris-HCl, 7.5 mM CaCl2, 150 mM NaCl, pH=7.4) to yield the final working dilutions containing 2% (v/v) DMSO. 15 μl of inhibitor working dilution are added per well of a 96 well microtiter plate. As control, 15 μl of a 2% (v/v) DMSO solution prepared using the buffer mentioned above are added per well.
Immediately before starting the assay, 600 μl transglutaminase working solution are added to 11.4 ml assay buffer (50 mM Tris-HCl, 10 mM CaCl2, 10 mM glutathione, 2.5% glycerol, 16.7 μM dansylcadaverine, 4 μM N,N-dimethylcasein, 200 mM NaCl, pH=8.0). 285 μl of this reaction mix are added per well containing the inhibitor.
Increase in fluorescence is measured using λex=330 nm and λemG=500 nm at […] for 30 min. A slope of the increase in fluorescence between 20 and 30 min is calculated for determination of the IC50 value (inhibitor concentration at which 50% of the initial activity is blocked).
Analysis of enzymatic activity is performed by calculation of the slope of an increase in fluorescence intensity. IC50 values are calculated by plotting the enzymatic activity (as percentage from control containing 2% DMSO instead of inhibitor) against the inhibitor concentration. IC50 is defined as the inhibitor concentration blocking 50% of initial enzyme activity.

Series [2] in a line: Log D by shake flask method (octanol / PBS pH 7.4, HPLC). Type of series: physicochemical. The following applies: octanol / PBS pH 7.4, shake flask; read-out: logD. The method, then: In order to classify the inventive compounds according to their lipophilicity, Log D values (distribution coefficient) were determined by means of the well-established shake flask method, measuring the partition of a compound between an octanol and phosphate-buffered saline (PBS, pH 7.4) by HPLC.
Compounds with a moderate lipophilicity (Log D values from 0 to 3) are usually advantaged for oral absorption, being in balance between solubility and permeability. However, sophisticated formulation of a compound might improve oral bioavailability for highly lipophilic compounds.

Series [3] in a line: Caco-2 permeability assay (CacoReady kit). The following applies: human. Type of series: in vitro ADME. Here is the method:
Permeability coefficients (Papp values) were obtained from Caco-2 barrier studies predicting oral/intestinal bioavailability of the tested compounds. The assays were performed by using CacoReady™ ready-to-use kits from ReadyCell according to the manufacturers protocol.
In general terms: Caco-2 monolayers are a common model of the intestinal barrier.

Regarding `CCNC(=O)C(=O)CC[C@H](NC(=O)c1nccn1C)C(=O)Nc1cccn(CC(=O)NC23CC4CC(C)(CC(C)(C4)C2)C3)c1=O` [Compound I-23, (S)-N1-ethyl-N6-(1-(2-(3,5-dimethyladamantane-1-amino)-2-oxoethyl)-2-oxo-1,2-dihydropyridin-3-yl)-5-(1-methyl-1H-imidazole-2-carboxamido)-2-oxohexanediamide], the IC50 in series [1] fell in the range of 600 to 3500 nM. For the same molecule, in series [2], the logD is 1 to 3. Also, the Papp in series [3] is under 1 ×10⁻⁶ cm/s.
Turning to `CCNC(=O)C(=O)CC[C@H](NC(=O)c1cnc(C)n1C)C(=O)Nc1cccn(CC(=O)NC23CC4CC(C)(CC(C)(C4)C2)C3)c1=O` [Compound I-24, (S)-2-(1,2-dimethyl-1H-imidazole-5-carboxamido)-N6-ethyl-N1-(1-(2-(3,5-dimethyladamantane-1-amino)-2-oxoethyl)-2-oxo-1,2-dihydropyridin-3-yl)-5-oxohexanediamide], in series [1], the IC50 was 150 to 600 nM. For the same molecule, the logD in series [2] lay within 1 to 3. Further, the Papp in series [3] was under 1 ×10⁻⁶ cm/s.
In the case of `CCNC(=O)C(=O)CC[C@H](NC(=O)c1cncn1C)C(=O)Nc1cccn(CC(=O)NC23CC4CC(CC(C)(C4)C2)C3)c1=O` [Compound I-25, (S)-N1-ethyl-N6-(1-(2-(3-methyladamantane-1-amino)-2-oxoethyl)-2-oxo-1,2-dihydropyridin-3-yl)-5-(1-methyl-1H-imidazole-5-carboxamido)-2-oxohexanediamide], the IC50 in series [1] fell in the range of 150 to 600 nM. Further, the logD in series [2] fell in the range of 1 to 3. In series [3], this molecule yielded a Papp of under 1 ×10⁻⁶ cm/s.
For `CCNC(=O)C(=O)CC[C@H](NC(=O)c1cnc(Cl)n1C)C(=O)Nc1cccn(CC(=O)NC23CC4CC(C)(CC(C)(C4)C2)C3)c1=O` [Compound I-26, (S)-2-(2-chloro-1-methyl-1H-imidazole-5-carboxamido)-N6-ethyl-N1-(1-(2-(3,5-dimethyladamantane-1-amino)-2-oxoethyl)-2-oxo-1,2-dihydropyridin-3-yl)-5-oxohexanediamide] the same measures were 150 to 600 nM, 1 to 3 and under 1 ×10⁻⁶ cm/s.
Regarding `CCNC(=O)C(=O)CC[C@H](NC(=O)c1cnc(C)n1C)C(=O)Nc1cccn(CC(=O)NC23CC4CC(CC(C)(C4)C2)C3)c1=O` [Compound I-27, (S)-2-(1,2-dimethyl-1H-imidazole-5-carboxamido)-N6-ethyl-N1-(1-(2-(3-methyladamantane-1-amino)-2-oxoethyl)-2-oxo-1,2-dihydropyridin-3-yl)-5-oxohexanediamide], in series [1], the IC50 lay in the range of 600 to 3500 nM. In addition, the logD in series [2] was 1 to 3. In addition, the Papp in series [3] was under 1 ×10⁻⁶ cm/s.
For `CCNC(=O)C(=O)CC[C@H](NC(=O)c1cncn1C)C(=O)Nc1cccn(CC(=O)NC23CC4(C)CC(C)(CC(C)(C4)C2)C3)c1=O` [Compound I-28, (S)-N1-ethyl-N6-(1-(2-(3,5,7-trimethyl-1-adamantylamino)-2-oxoethyl)-2-oxo-1,2-dihydropyridin-3-yl)-5-(1-methyl-1H-imidazole-5-carboxamido)-2-oxohexanediamide], in series [1], the IC50 is under 150 nM. The logD in series [2] fell in the range of 1 to 3. Further, the Papp in series [3] is under 1 ×10⁻⁶ cm/s.
For `CCNC(=O)C(=O)CC[C@H](NC(=O)c1cnc(Cl)n1C)C(=O)Nc1cccn(CC(=O)NC23CC4(C)CC(C)(CC(C)(C4)C2)C3)c1=O` [Compound I-29, (S)-2-(2-chloro-1-methyl-1H-imidazole-5-carboxamido)-N6-ethyl-N1-(1-(2-(3,5,7-trimethyl-1-adamantylamino)-2-oxoethyl)-2-oxo-1,2-dihydropyridin-3-yl)-5-oxohexanediamide], in that order: under 150 nM, 1 to 3 and under 1 ×10⁻⁶ cm/s.
Turning to `CCNC(=O)C(=O)CC[C@H](NC(=O)c1cc2ccccc2o1)C(=O)Nc1cccn(CC(=O)NC2C3CC4CC(C3)CC2C4)c1=O` (stereo partly drawn) [Compound I-30, (S)-2-(benzofuran-2-carboxamido)-N6-ethyl-N1-(1-(2-(2-adamantylamino)-2-oxoethyl)-2-oxo-1,2-dihydropyridin-3-yl)-5-oxohexanediamide], the IC50 in series [1] is under 150 nM. In addition, the logD in series [2] lay in the range of 3 to 5. Also, the Papp in series [3] fell in the range of 1 to 10 ×10⁻⁶ cm/s.

For orientation: IC50 means the midpoint of a concentration-inhibition curve. In general, logD refers to lipophilicity at a set pH, counting ionised and neutral species. Usually Papp stands for the rate of passage across a membrane or cell layer, normalised by area and donor concentration. Higher therefore signals ready permeation.
